# Results taken from US20040086904A1, “Screening assay for cotranslational translocation interfering compounds” (priority 2001, published 2004).
# Columns and labels:
# [1] = biological target: T1, E-Selectin mutant molecule with SP from VCAM-1 (Homo sapiens, UniProt P16581); experiment: Chimeric fusion construct sensitivity (cell-free translation/translocation and transfected HEK293 cells); format: cell-based; settings: cell-free translation/translocation assay and transiently transfected HEK293 cells
# T1 construct: VCAM-1 signal peptide (SP; VCAM1, P19320), replacing E-Selectin's own SP (N); expressed in transfected cells; host or cells: HEK293 (transient); also translated cell-free in reticulocyte lysate with microsomes
# Protocol: (§1) The E-Selectin and ICAM-1 expression vectors pCDM8-E-selectin and pCDM8-ICAM-1 allowing transient expression in mammalian cells and cell-free translation are obtained from R&D Systems. VCAM-1 cDNA is obtained by reverse transcription of total RNA from TNF-α stimulated primary human umbilical vein endothelial cells (HUVEC) as follows. After extraction of total RNA with Trizol (GibcoBRL) according to the suppliers recommendations, reverse transcription (RT) PCR on approximately 3 μg total HUVEC RNA is performed using the Advantage High Fidelity PCR kit (CLONTECH) under standard conditions with N- and C-terminal VCAM-1-specific sense and antisense oligonucleotide primers, respectively. Primers are tailed, introducing a Kpnl restriction site 5′ of the Kozak sequence and a Xhol site 3′ of the stop codon. Placental SEAP is amplified accordingly by PCR using plasmid pBC 12/PLAP489 (Berger et al., 1988) as a template and similar tailed SEAP-specific sense and antisense oligonuclotide primers. The SEAP and VCAM-1 cDNAs are isolated and cloned into the pCR2.1 vector (TA cloning kit, Invitrogen). All sequences are confirmed by sequencing and subsequently subcloned into the mammalian expression vector pcDNA3.1 (+) (Invitrogen) as Kpnl Xhol fragments for transient expression under control of the constitutive immediate-early CMV promoter and for cell-free translation from the bacteriophage T7 promoter. To generate SP-gene fusion constructs the recombinant PCR-ligation-PCR mutagenesis method is used (Ali and Steinkasserer, 1995). Briefly, in a primary PCR reaction the two fusion gene fragments are independently amplified using appropriate specific primers for the SPs (PCR product A) and the mature sequences (PCR product B), respectively. Approximately equal molar quantities of each PCR product A and B are phosphorylated and ligated. Finally, out of the possible ligation combinations, the desired fusion gene construct is specifically amplified from an aliquot of the ligation reaction by a secondary PCR using the 5′ sense primer of the SP and the 3′ antisense primer of the mature sequence. […]
# [2] = biological target: T2, VCAM-1 mutant molecule containing the SP from E-Selectin (Homo sapiens, UniProt P19320); experiment: as above; format: cell-based; settings: cell-free translation/translocation assay and transiently transfected HEK293 cells
# T2 construct: E-Selectin signal peptide (SP; SELE, P16581), replacing VCAM-1's own SP (N); expressed in transfected cells; host or cells: HEK293 (transient); also translated cell-free in reticulocyte lysate with microsomes
# Protocol: as §1
# [3] = test system: VCAMSP15+4/E-Sel; experiment: as above; format: cell-based; settings: 15 aa of the SP plus 4 aa of the adjacent mature domain of VCAM-1
# Protocol: as §1
# [4] = biological target: T3, VCAM-1 (Homo sapiens, UniProt P19320)
# T3 sequence (P19320 25-739): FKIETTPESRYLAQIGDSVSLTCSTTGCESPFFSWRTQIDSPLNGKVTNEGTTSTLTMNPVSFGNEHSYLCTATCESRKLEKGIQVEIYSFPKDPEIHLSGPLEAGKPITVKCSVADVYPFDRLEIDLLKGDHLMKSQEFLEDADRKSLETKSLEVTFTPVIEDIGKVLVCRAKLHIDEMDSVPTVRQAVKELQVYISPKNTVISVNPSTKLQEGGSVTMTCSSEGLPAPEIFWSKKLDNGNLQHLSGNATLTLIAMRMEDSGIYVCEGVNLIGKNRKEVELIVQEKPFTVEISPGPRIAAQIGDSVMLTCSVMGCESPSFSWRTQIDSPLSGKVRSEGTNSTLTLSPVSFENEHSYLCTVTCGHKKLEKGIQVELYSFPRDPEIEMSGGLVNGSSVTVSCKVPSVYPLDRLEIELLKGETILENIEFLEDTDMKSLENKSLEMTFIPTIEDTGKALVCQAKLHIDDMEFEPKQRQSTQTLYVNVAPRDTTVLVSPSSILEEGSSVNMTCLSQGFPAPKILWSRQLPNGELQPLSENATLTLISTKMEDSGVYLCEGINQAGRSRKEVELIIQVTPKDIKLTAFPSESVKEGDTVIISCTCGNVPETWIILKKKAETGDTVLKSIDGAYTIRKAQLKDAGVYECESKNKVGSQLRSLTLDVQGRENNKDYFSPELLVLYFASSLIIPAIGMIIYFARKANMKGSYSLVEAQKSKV
# Protocol: Cell-free translations are carried out in the coupled TNT reticulocyte lysate system (Promega) using bacteriophage T7 polymerase according to the suppliers recommendations in a final volume of 25 μl and in the presence of [^35S]-methionine (Redivue, 10 mCi/ml, Amersham). To study cotranslational translocation across the ER membrane dog pancreatic microsomes (Promega) are present during translation reactions at concentrations between 1 to 2.5 μl per 25 μl reaction mixture. After translation/translocation, 2.5 μl of the reaction mixture are denatured in SDS loading buffer (12.5 mM Tris-HCl, pH 6.8, 80 μM EDTA, 26 mM DTT, 1% SDS, 100 g/ml bromphenol blue, 0.01% NaN3) for 5 minutes at 95° and subjected to SDS-PAGE (4-20% gradient or 15% Excel gels, Pharmacia). Gels are analyzed by autoradiography and quantitated using an Instant Phosphoimager (Packard). […]
# To investigate the possibility that the candidate compound is interfering at this early stage of protein expression the effect of the drug on the process of cotranslational translocation in a cell-free assay system is analysed. […]
# [5] = biological target: T3, VCAM-1; experiment: Transient expression of VCAM-1 in HEK293 cells, Western blot / immunoblot; format: cell-based; set-up: expressed in transfected cells; host or cells: HEK293
# Protocol: The E-Selectin and ICAM-1 expression vectors pCDM8-E-selectin and pCDM8-ICAM-1 allowing transient expression in mammalian cells and cell-free translation are obtained from R&D Systems. VCAM-1 cDNA is obtained by reverse transcription of total RNA from TNF-α stimulated primary human umbilical vein endothelial cells (HUVEC) as follows. After extraction of total RNA with Trizol (GibcoBRL) according to the suppliers recommendations, reverse transcription (RT) PCR on approximately 3 μg total HUVEC RNA is performed using the Advantage High Fidelity PCR kit (CLONTECH) under standard conditions with N- and C-terminal VCAM-1-specific sense and antisense oligonucleotide primers, respectively. Primers are tailed, introducing a Kpnl restriction site 5′ of the Kozak sequence and a Xhol site 3′ of the stop codon. Placental SEAP is amplified accordingly by PCR using plasmid pBC 12/PLAP489 (Berger et al., 1988) as a template and similar tailed SEAP-specific sense and antisense oligonuclotide primers. The SEAP and VCAM-1 cDNAs are isolated and cloned into the pCR2.1 vector (TA cloning kit, Invitrogen). […] Approximately equal molar quantities of each PCR product A and B are phosphorylated and ligated. […]
# Protein expression in cells is analyzed by Western blot and subsequent immunoblot analysis. […]
compound,measurement,setting,value
CCCCC(C)CC1NC(=O)C(Cc2cn(OC)c3ccccc23)N(C)C(=O)C(CC(C)C)NC(=O)C(CC(C)C)N(C)C(=O)C(CC(C)CCCC)NC(=O)C(CCC(=O)OCCC)OC(=O)C(C)N(C)C1=O (stereo not drawn) [CP],sensitivity of the chimeric construct to the compound,[1],partially sensitive
same,sensitivity of the chimeric construct to the compound,[2],resistant
same,sensitivity of the chimeric construct to the compound,[3],full sensitivity
same,core-glycosylated and protease-protected form of VCAM-1 (translocation across microsomal membranes),[4],inhibited by increasing concentrations
same,VCAM-1 protein in transfected cells co-treated with lactacystin,"[5]; cells transiently transfected with VCAM-1 cDNA, co-treatment with lactacystin 5 μM, band identified as full length, non-glycosylated VCAM-1",accumulation of a polypeptide moiety of lower molecular weight
same,IC50,"[5]; transiently transfected HEK293 cells, 48 hours post-transfection, Western blot quantified against β-actin, read-out: concentration inhibiting 50% of VCAM-1 glycoprotein synthesis",< 5 nM
